# Results taken from ChEMBL document CHEMBL4308841, “Synthesis, in vitro antiproliferative activity, and kinase inhibitory effects of pyrazole-containing diarylureas and diarylamides” (Eur J Med Chem, 2018).
# pIC50: −log10 of the molar value.
# Columns and labels:
# TK-10 = assay: Growth inhibition of human TK10 cells assessed as cell growth at 10 uM incubated for 48 hrs by sulforhodamine B assay relative to control; assay type: functional; conditions: TK-10, 48 h, read-out: Activity
# MOLT-4 = assay: Growth inhibition of human MOLT4 cells incubated for 48 hrs by sulforhodamine B assay; assay type: functional, cell-based; conditions: MOLT-4, 48 h
# A549 [1] = assay: Growth inhibition of human A549/ATCC cells incubated for 48 hrs by sulforhodamine B assay; assay type: functional, cell-based; conditions: A549, 48 h
# SNB-75 [2] = assay: Growth inhibition of human SNB75 cells incubated for 48 hrs by sulforhodamine B assay; assay type: functional, cell-based; conditions: SNB-75, 48 h
# UACC-257 = assay: Growth inhibition of human UACC257 cells incubated for 48 hrs by sulforhodamine B assay; assay type: functional, cell-based; conditions: UACC-257, 48 h
# SK-OV-3 [3] = assay: Growth inhibition of human SKOV3 cells incubated for 48 hrs by sulforhodamine B assay; assay type: functional, cell-based; conditions: SK-OV-3, 48 h
# DU-145 [4] = assay: Growth inhibition of human DU145 cells incubated for 48 hrs by sulforhodamine B assay; assay type: functional, cell-based; conditions: DU-145, 48 h
# HCT-116 = assay: Growth inhibition of human HCT116 cells assessed as cell growth at 0.01 uM incubated for 48 hrs by sulforhodamine B assay relative to control; assay type: functional; conditions: HCT-116, 48 h, read-out: Activity
# SNB-75 [5] = assay: Growth inhibition of human SNB75 cells assessed as cell growth at 0.01 uM incubated for 48 hrs by sulforhodamine B assay relative to control; assay type: functional; conditions: SNB-75, 48 h, read-out: Activity
# MDA-MB-435 = assay: Growth inhibition of human MDA-MB-435 cells assessed as cell growth at 0.01 uM incubated for 48 hrs by sulforhodamine B assay relative to control; assay type: functional; conditions: MDA-MB-435, 48 h, read-out: Activity
# SK-MEL-5 [6] = assay: Growth inhibition of human SK-MEL-5 cells assessed as cell growth at 0.01 uM incubated for 48 hrs by sulforhodamine B assay relative to control; assay type: functional; conditions: SK-MEL-5, 48 h, read-out: Activity
# SK-OV-3 [7] = assay: Growth inhibition of human SKOV3 cells assessed as cell growth at 0.01 uM incubated for 48 hrs by sulforhodamine B assay relative to control; assay type: functional; conditions: SK-OV-3, 48 h, read-out: Activity
# A498 = assay: Growth inhibition of human A498 cells assessed as cell growth at 0.01 uM incubated for 48 hrs by sulforhodamine B assay relative to control; assay type: functional; conditions: A498, 48 h, read-out: Activity
# DU-145 [8] = assay: Growth inhibition of human DU145 cells assessed as cell growth at 0.01 uM incubated for 48 hrs by sulforhodamine B assay relative to control; assay type: functional; conditions: DU-145, 48 h, read-out: Activity
# K562 [9] = assay: Growth inhibition of human K562 cells assessed as cell growth at 0.1 uM incubated for 48 hrs by sulforhodamine B assay relative to control; assay type: functional; conditions: K562, 48 h, read-out: Activity
# A549 [10] = assay: Growth inhibition of human A549/ATCC cells assessed as cell growth at 0.1 uM incubated for 48 hrs by sulforhodamine B assay relative to control; assay type: functional; conditions: A549, 48 h, read-out: Activity
# SK-MEL-28 = assay: Growth inhibition of human SK-MEL-28 cells assessed as cell growth at 0.1 uM incubated for 48 hrs by sulforhodamine B assay relative to control; assay type: functional; conditions: SK-MEL-28, 48 h, read-out: Activity
# IGROV-1 = assay: Growth inhibition of human IGROV1 cells assessed as cell growth at 0.1 uM incubated for 48 hrs by sulforhodamine B assay relative to control; assay type: functional; conditions: IGROV-1, 48 h, read-out: Activity
# OVCAR-3 = assay: Growth inhibition of human OVCAR3 cells assessed as cell growth at 0.1 uM incubated for 48 hrs by sulforhodamine B assay relative to control; assay type: functional; conditions: OVCAR-3, 48 h, read-out: Activity
# NCI-H226 = assay: Growth inhibition of human NCI-H226 cells assessed as cell growth at 1 uM incubated for 48 hrs by sulforhodamine B assay relative to control; assay type: functional; conditions: NCI-H226, 48 h, read-out: Activity
# SK-MEL-5 [11] = assay: Growth inhibition of human SK-MEL-5 cells assessed as cell growth at 1 uM incubated for 48 hrs by sulforhodamine B assay relative to control; assay type: functional; conditions: SK-MEL-5, 48 h, read-out: Activity
# OVCAR-8 = assay: Growth inhibition of human OVCAR8 cells assessed as cell growth at 1 uM incubated for 48 hrs by sulforhodamine B assay relative to control; assay type: functional; conditions: OVCAR-8, 48 h, read-out: Activity
# SK-OV-3 [12] = assay: Growth inhibition of human SKOV3 cells assessed as cell growth at 1 uM incubated for 48 hrs by sulforhodamine B assay relative to control; assay type: functional; conditions: SK-OV-3, 48 h, read-out: Activity
# MDA-MB-231 = assay: Growth inhibition of human MDA-MB-231 cells assessed as cell growth at 1 uM incubated for 48 hrs by sulforhodamine B assay relative to control; assay type: functional; conditions: MDA-MB-231, 48 h, read-out: Activity
# K562 [13] = assay: Growth inhibition of human K562 cells assessed as cell growth at 100 uM incubated for 48 hrs by sulforhodamine B assay relative to control; assay type: functional; conditions: K562, 48 h, read-out: Activity
# RPMI-8226 = assay: Growth inhibition of human RPMI8226 cells assessed as cell growth at 100 uM incubated for 48 hrs by sulforhodamine B assay relative to control; assay type: functional; conditions: RPMI-8226, 48 h, read-out: Activity
# COLO 205 = assay: Growth inhibition of human COLO205 cells assessed as cell growth at 100 uM incubated for 48 hrs by sulforhodamine B assay relative to control; assay type: functional; conditions: COLO 205, 48 h, read-out: Activity
# SF-268 = assay: Growth inhibition of human SF268 cells assessed as cell growth at 100 uM incubated for 48 hrs by sulforhodamine B assay relative to control; assay type: functional; conditions: SF-268, 48 h, read-out: Activity
# SF-295 = assay: Growth inhibition of human SF295 cells assessed as cell growth at 100 uM incubated for 48 hrs by sulforhodamine B assay relative to control; assay type: functional; conditions: SF-295, 48 h, read-out: Activity
# [14] = read-out: LC50 (the source's name)
# [15] = read-out: pLC50 (the source's name) (converted)
compound,measurement,setting,value
COc1cc(Cl)cc(-c2nn(-c3cccc(NC(=O)Nc4cccc(C(F)(F)F)c4)c3)cc2-c2ccncc2)c1,growth at 10 µM,TK-10,23.4%
same,GI50,MOLT-4; read-out: GI50,1.13 µM
same,CC50,MOLT-4; [14],> 100 µM
same,TGI,MOLT-4; read-out: TGI,43.5 µM
same,GI50,MOLT-4; read-out: pGI50 (converted),1.12 µM
same,CC50,MOLT-4; [15],> 100 µM
same,TGI,MOLT-4; read-out: pTGI (converted),4.37 µM
same,pIC50,A549 [1],6.14
same,GI50,A549 [1]; read-out: GI50,0.726 µM
same,CC50,A549 [1]; [14],> 100 µM
same,TGI,A549 [1]; read-out: TGI,74.2 µM
same,GI50,A549 [1]; read-out: pGI50 (converted),0.724 µM
same,CC50,A549 [1]; [15],> 100 µM
same,TGI,A549 [1]; read-out: pTGI (converted),7.41 µM
same,GI50,SNB-75 [2]; read-out: GI50,1.76 µM
same,CC50,SNB-75 [2]; [14],> 100 µM
same,TGI,SNB-75 [2]; read-out: TGI,13.9 µM
same,GI50,SNB-75 [2]; read-out: pGI50 (converted),1.78 µM
same,CC50,SNB-75 [2]; [15],> 100 µM
same,TGI,SNB-75 [2]; read-out: pTGI (converted),13.8 µM
same,GI50,UACC-257; read-out: GI50,1.75 µM
same,CC50,UACC-257; [14],21.5 µM
same,TGI,UACC-257; read-out: TGI,45.5 µM
same,GI50,UACC-257; read-out: pGI50 (converted),1.74 µM
same,CC50,UACC-257; [15],21.4 µM
same,TGI,UACC-257; read-out: pTGI (converted),4.68 µM
same,GI50,SK-OV-3 [3]; read-out: GI50,3.61 µM
same,CC50,SK-OV-3 [3]; [14],> 100 µM
same,TGI,SK-OV-3 [3]; read-out: TGI,55.4 µM
same,GI50,SK-OV-3 [3]; read-out: pGI50 (converted),3.63 µM
same,CC50,SK-OV-3 [3]; [15],> 100 µM
same,TGI,SK-OV-3 [3]; read-out: pTGI (converted),58.9 µM
same,GI50,DU-145 [4]; read-out: GI50,2.61 µM
same,CC50,DU-145 [4]; [14],> 100 µM
same,TGI,DU-145 [4]; read-out: TGI,> 100 µM
same,GI50,DU-145 [4]; read-out: pGI50 (converted),2.63 µM
same,CC50,DU-145 [4]; [15],> 100 µM
same,TGI,DU-145 [4]; read-out: pTGI (converted),> 100 µM
same,growth at 0.01 µM,HCT-116,101%
same,growth at 0.01 µM,SNB-75 [5],83%
same,growth at 0.01 µM,MDA-MB-435,100%
same,growth at 0.01 µM,SK-MEL-5 [6],96%
same,growth at 0.01 µM,SK-OV-3 [7],92%
same,growth at 0.01 µM,A498,95%
same,growth at 0.01 µM,DU-145 [8],101%
same,growth at 0.1 µM,K562 [9],94%
same,growth at 0.1 µM,A549 [10],96%
same,growth at 0.1 µM,SK-MEL-28,100%
same,growth at 0.1 µM,IGROV-1,96%
same,growth at 0.1 µM,OVCAR-3,98%
same,growth at 1 µM,NCI-H226,77%
same,growth at 1 µM,SK-MEL-5 [11],80%
same,growth at 1 µM,OVCAR-8,54%
same,growth at 1 µM,SK-OV-3 [12],103%
same,growth at 1 µM,MDA-MB-231,71%
same,growth at 100 µM,K562 [13],-22%
same,growth at 100 µM,RPMI-8226,-43%
same,growth at 100 µM,COLO 205,-95%
same,growth at 100 µM,SF-268,-28%
same,growth at 100 µM,SF-295,-53%
